Test results reported in publication PMC8170916, “Sublingual AKBA Exerts Antidepressant Effects in the Aβ-Treated Mouse Model” (Biomolecules, 2021).

What was measured:
[1] = Cerebral AKBA quantification by GC-MS/IT after sublingual or intranasal administration; format: in vivo, mice; details: 5 mg/kg
Experimental: (§1) AKBA (Cayman Chemical Company) was dissolved in sunflower oil, this vehicle was chosen in order to maintain a better tasting and higher density of the final solution thus reducing reflux through the digestive tract. […] Ten µL of the solution (or vehicle alone) was sublingually administered to mice. For intranasal administration, requiring more hydrophilic solution, AKBA was dissolved in DMSO and saline (1:3, v/v), and given to mice at the same final dose of 5 mg/kg. Cerebral AKBA was quantified in a separate subset of mice at 5, 15 and 30 min after its administration, either sublingually or intranasally.
After administration, whole brains were put in 1 mL of a solution of chloroform/methanol (1:1 v/v), sonicated and then homogenates were centrifuged at 4 °C for 20 min (10,000 rpm). The pellets were then removed, and the remaining supernatants were dried on sodium sulphate anhydrous, filtered with 0.20 µm PTFE syringe filters and used for chemical analysis. The quantification of 3-O-acetyl-11-keto-β-boswellic acid (AKBA) was performed by using GC-MS/IT equipment composed of a gas chromatograph GC-7890B (Agilent Technologies, Santa Clara, CA, USA) coupled with an ion trap mass spectrometer IT-240 (Agilent Technologies).
The gas chromatograph was equipped with a VF-5 ms (Agilent J&W GC Columns) capillary column, 30 m × 0.25 mm i.d. × 0.25 µm. The column oven was set at 50 °C for 1 min after injection; then the temperature was increased from 50 °C to 300 °C with a ramp of 5 °C/min and a hold time of 10 min. The purge process was performed at the end of each run, increasing the oven temperature from 300 °C to 325 °C at 10 °C/min and a hold time of 1.5 min. The total time for each run was approximately 65 min. The injection volume was 2 µL (splitless) with a continuous flow rate of 1 mL/min of ultra-high purity helium (BIP®) and an injector temperature of 250 °C.
The MS electron multiplier voltage was set at 1450 V, and an ionization time of 65,000 µs was used, running in the electron impact (EI) mode. The transfer line, ion trap and manifold temperatures were set at 270 °C, 180 °C and 70 °C, respectively. The mass spectrometer firstly operated in full scan mode (50–700 m/z) with the ionizing voltage at 70 eV. […] Peaks at m/z 408 and m/z 393 were identified as M-AcOH-CO2 and M-AcOH-CO2-CH3. The peak at m/z 273 was identified as fragment A, resulting from retro-Diels–Alder fragmentation, while the peak at m/z 232 was identified as fragment B, generated from McLafferty fragmentation. These characteristic fragments were selected as a mass target to develop the MS acquisition method operating in single ion scan mode (SIS) to improve the LOD and LOQ for AKBA quantification. […]

mice = assay: Open field test (locomotion); format: in vivo; details: 30 min after AKBA or vehicle administration
Experimental: Mice were placed in an open field arena and allowed to explore for 30 min [25]. After each trial, the arena floor was cleaned with 70% ethanol to avoid inter-assay bias. The movements of mice were video recorded and analyzed by ANY-maze tracking software (Ugo Basile-Varese, Gemonio, Italy). Locomotion was evaluated through total crossing measurements.

glutamate (GLU) = assay: Glutamate quantification in PFC and HIPP by HPLC with fluorescence detection; format: in vivo; details: PFC, mice 7 days after icv Aβ 4 µM; sublingual AKBA 5 mg/kg 30 min earlier
Experimental: (§2) All behavioral experiments were conducted at 5 or 30 min after sublingual administrations of AKBA or vehicle in either SHAM or Aβ-treated mice. Based upon behavioral outcomes observed, neurochemical and biochemical quantifications were performed 30 min after AKBA or vehicle administration in either SHAM or Aβ-treated mice.
(§3) Anesthetized animals were sacrificed by cervical dislocation. Brains were immediately removed and kept on ice for dissection of PFC and HIPP, according to the atlas of Paxinos and Franklin. Tissues were frozen and stored at −80 °C until analyses were carried out. Samples (PFC and HIPP) were homogenized (1:10 w/v) at 4 °C using a PBS buffer containing a 1:100 protease and phosphatase inhibitor cocktail (HALT inhibitors, Thermo Fisher Scientific, Cleveland, OH, USA) for biochemical analyses or perchloric acid 0.1 M for neurochemical analyses. Homogenates were centrifuged at 13,000× g at 4 °C for 20 min, and supernatants were used for further determinations.
5-HT, noradrenaline (NA), and KYN levels were measured in the PFC and HIPP of mice by HPLC coupled with an electrochemical detector (Ultimate ECD, Thermo Scientific Dionex, Milan, Italy) as already reported. Separation was performed by a LC18 reverse phase column (Kinetex, 150 mm × 3.0 mm, ODS 5 μm; Phenomenex, Castel Maggiore-Bologna, Italy). The detection was accomplished by a thin layer amperometric cell (Thermo Scientific Dionex, Milan, Italy) with a 5 mm diameter glassy carbon electrode at a working potential of 400 mV (5-HT and NA) or 0.750 mV (KYN) vs. Pd. The mobile phase consisted of an aqueous buffer containing 75 mM NaH2PO4, 1.7 mM octane sulfonic acid, 0.3 mM EDTA, and acetonitrile 10%, buffered at pH 3.0. […] GLU concentrations were determined by HPLC coupled with fluorescence detection (emission length 460 nm; excitation length 340 nm), as previously published. […] Results were analyzed by Borwin software (version 1.50; Jasco, Cremella, Italy) and the amino acid concentration was expressed as µM. All data were normalized for total area weight and were expressed as concentration/mg of tissue.

5-HT = 5-HT quantification in PFC and HIPP by HPLC with electrochemical detection; format: in vivo; details: mice 7 days after icv Aβ 4 µM, sublingual AKBA 5 mg/kg 30 min earlier
Experimental: as §2, §3
5-HT, noradrenaline (NA), and KYN levels were measured in the PFC and HIPP of mice by HPLC coupled with an electrochemical detector (Ultimate ECD, Thermo Scientific Dionex, Milan, Italy) as already reported. Separation was performed by a LC18 reverse phase column (Kinetex, 150 mm × 3.0 mm, ODS 5 μm; Phenomenex, Castel Maggiore-Bologna, Italy). The detection was accomplished by a thin layer amperometric cell (Thermo Scientific Dionex, Milan, Italy) with a 5 mm diameter glassy carbon electrode at a working potential of 400 mV (5-HT and NA) or 0.750 mV (KYN) vs. Pd. The mobile phase consisted of an aqueous buffer containing 75 mM NaH2PO4, 1.7 mM octane sulfonic acid, 0.3 mM EDTA, and acetonitrile 10%, buffered at pH 3.0. The flow rate was kept at 0.7 mL·min-1 by an isocratic pump (Shimadzu LC-10 AD, Kyoto, Japan). Data acquisition and integration were performed by using Chromeleon software (version 6.80, Thermo Scientific Dionex, Milan, Italy). GLU concentrations were determined by HPLC coupled with fluorescence detection (emission length 460 nm; excitation length 340 nm), as previously published. Analyses were carried out using an LC18 reverse phase column (Kinetex, 150 mm × 3.0 mm, ODS 5 μm; Phenomenex, Castel Maggiore, Bologna, Italy) and detection was accomplished by pre-column derivatization with ophthalaldehyde/mercaptopropionic acid. The mobile phase consisted of a 50 mM sodium acetate buffer, at pH 6.95, with gradient methanol increasing linearly from 2 to 30% (v/v) over a 40 min run. […] Results were analyzed by Borwin software (version 1.50; Jasco, Cremella, Italy) and the amino acid concentration was expressed as µM. All data were normalized for total area weight and were expressed as concentration/mg of tissue.

intact mice = assay: Preliminary experiments on antidepressant effects in intact mice; format: in vivo; details: unpublished observations
Experimental: as §1

Caco-2 cells = system: Caco-2 cells; set-up: method as in PMID 19010411; details: in vitro model to simulate human intestinal absorption; cited from earlier work

Crossing of the blood brain barrier ([1]; sublingual or intranasal): rapidly crossed the blood brain barrier | Time of highest cerebral AKBA concentrations after administration ([1]; sublingual or intranasal, sampled at 5, 15, 30 min): 5 min | Locomotion in the open field test (mice): no difference
SMILES: CC(=O)O[C@@H]1CC[C@@]2(C)[C@@H](CC[C@]3(C)[C@@H]2C(=O)C=C2[C@@H]4[C@@H](C)[C@H](C)CC[C@]4(C)CC[C@]23C)[C@@]1(C)C(=O)O [AKBA, 3-O-acetyl-11-keto-β-boswellic acid]
Cerebral AUCs, sublingual vs intranasal ([1]; same dose by both routes): sublingual route of administration was characterized by higher bioavailability | Cerebral AKBA levels (whole brain) ([1]; sublingual vs intranasal, 5, 15 and 30 min after administration): significantly higher after sublingual administration compared to intranasal | GLU levels in the PFC (glutamate (GLU)): restored those levels to control | 5-HT levels in the HIPP (5-HT; HIPP): no differences among experimental groups | 5-HT levels in the PFC (5-HT; PFC): no effect | Lowest dose showing antidepressant effects on intact mice (intact mice): 5 mg/kg | Permeability in Caco-2 cells (Caco-2 cells): low permeability
